Results on 35 compounds are retold here after patent EP1257544B1, “PIPERAZINE AND PIPERIDINE DERIVATIVES FOR TREATMENT OR PREVENTION OF NEURONAL DAMAGE” (VERTEX PHARMACEUTICALS INCORPORATED, priority 2000, dated 2001).

Structures are written as SMILES. Structures can show the parent of a compound that is named as a salt.

The subject of the assay is Dissociated VM cells. The assay can be described thus: Neuroprotection Assay (NMDA-induced neuroexcitotoxic injury, high affinity 3H-dopamine uptake). It counts as cell-based, Sprague-Dawley rat. The conditions noted are these: embryonic day 15 rat ventral mesencephalic cultures, NMDA (100-400 µM) for 20 hours. An excerpt:
The neuroprotective activity of the compounds of this invention may be assayed using rat embryo ventral mesencephalic cells in culture which are subsequently exposed to the glutamate receptor agonist NMDA. This assay is described in detail in the example section.
The ventral mesencephalic region was dissected out of embryonic day 15 Sprague-Dawley rat embryos (Harlan), dissociated into single cell suspension by a combination of trypsinization and trituration (Costantini et al., Neurobiol Dis., pp. 97-106 (1998). Dissociated VM cells were plated into poly-L-ornithine-coated 96-well plates at a density of 85,000 cells/well in 100 uL of DMEM supplemented with 18% heat-inactivated horse serum, 0.24% glucose, 2 mM glutamine and 50 u/ml pernicillin/streptomycin and incubated in a 5% CO2 incubator. After one day in culture (DIV1), the medium was replaced with 100 µL of a defined medium (DMEM supplemented with 1x N2 cocktail (Gibco-BRL), 0.12% glucose, 2 mM glutamine, and 50 units/ml penicillin/streptomycin) containing DMSO or various concentrations of the compounds of this invention. On DIV5, neuroexcitotoxic injury was induced by the addition of various concentrations of the glutamate receptor agonist NMDA (100-400 µM). Cultures were incubated with the neurotoxin for 20 hours and the effects of neurophilin compounds were assessed using high affinity ^3H-dopamine uptake according to a procedure published by Park and Mytilineou [Brain Res., 599, pp. 83-97 (1992)].
With `CCN1CCCC[C@H]1C(=O)N1CCN(C(c2ccccc2)c2ccccc2)CC1` [Compound 1, 1-[4-(1,1-Diphenylmethyl)piperazin-1-yl]-1-((S)-1-ethylpiperidin-2-yl)methanone], the EC50 was < 100 nM.

As to `CCN1CCCC[C@@H]1C(=O)N1CCN(C(c2ccccc2)c2ccccc2)CC1` [Compound 15, 1-[4-(1,1-Diphenylmethyl)piperazin-1-yl]-1-((R)-1-ethylpiperidin-2-yl)methanone], the EC50 is < 100 nM. The result for `CCN1CCCC[C@H]1C(=O)N1CCN(Cc2ccccc2)CC1` [Compound 16, 1-(4-Benzylpiperazin-1-yl)-1-((S)-1-ethylpiperidin-2-yl)methanone] reads 100 to 500 nM; that for `O=C([C@@H]1CCCCN1Cc1ccccc1)N1CCN(C(c2ccccc2)c2ccccc2)CC1` [Compound 20, 1-((S)-1-Benzyl-piperidin-2-yl)-1-[4-(1,1-diphenyl-methyl)-piperazin-1-yl]-methanone], < 100 nM. With `O=C([C@@H]1CCCCN1Cc1ccc(F)cc1)N1CCN(C(c2ccccc2)c2ccccc2)CC1` [Compound 21, 1-[4-(1,1-Diphenyl-methyl)-piperazin-1-yl]-1-[(S)-1-(4-fluoro-benzyl)-piperidin-2-yl]-methanone] the figure was < 100 nM; with `CCN1CCCC[C@H]1C(=O)N1CCN(C(c2ccc(F)cc2)c2ccc(F)cc2)CC1` [Compound 25, 1-{4-[1,1-Bis-(4-fluorophenyl)methyl]-piperazin-1-yl}-1-((S)-1-ethylpiperidin-2-yl)methanone], 100 to 500 nM; with `CCN1CCCC[C@H]1C(=O)N1CCC(Cc2ccccc2)CC1` [Compound 26, 1-(4-Benzylpiperidin-1-yl)-1-((S)-1-ethylpiperidin-2-yl)methanone], < 100 nM. Turning to `CCN1CCCC[C@H]1C(=O)N1CCC[C@H]1C(c1ccccc1)c1ccccc1` [Compound 27, 1-[(S)-2-(1,1-Diphenylmethyl)-pyrrolidin-1-yl]-1-((S)-1-ethyl-piperidin-2-yl)-methanone], the 50% effective concentration (EC50) was > 500 nM. As to `O=C([C@@H]1C[C@@H](O)CN1Cc1ccccc1)N1CCC(Cc2ccccc2)CC1` [Compound 30, ((2S,4R) -1-Benzyl-4-hydroxypyrrolidin-2-yl)-(4-benzylpiperidin-1-yl)-methanone], the EC50 was < 100 nM. With `CCN1CCCC[C@H]1C(=O)N1CCC(Cc2ccccc2)C1` (stereo partly drawn) [Compound 35, (3-Benzylpyrrolidin-1-yl)-((2S)-1-ethylpiperidin-2-yl)-methanone] the figure was 100 to 500 nM. As for `CCN1CCCC[C@H]1C(=O)N1CCN(Cc2cccnc2)CC1` [Compound 36, ((2S)-1-Ethylpiperidin-2-yl)-(4-pyridin-3-ylmethylpiperazin-1-yl)-methanone trihydrochloride], the EC50 is > 500 nM. With `CCN1CCCC[C@H]1C(=O)N1CCN(Cc2ccncc2)CC1` [Compound 37, ((2S)-1-Ethylpiperidin-2-yl)-(4-pyridin-4-ylmethylpiperazin-1-yl)-methanone trihydrochloride] the figure was > 500 nM; with `CCN1CCCC[C@H]1C(=O)N1CCN(Cc2ccccn2)CC1` [Compound 38, ((2S)-1-Ethylpiperidin-2-yl)-(4-pyridin-2-ylmethylpiperazin-1-yl)-methanone trihydrochloride], > 500 nM; with `CCN1CCCC[C@@H]1C(=O)N1CCN(C(c2ccc(F)cc2)c2ccc(F)cc2)CC1` [Compound 40, {4-[Bis-(4-fluorophenyl)methyl]-piperazin-1-yl}-((2R)-1-ethylpiperidin-2-yl)-methanone], > 500 nM.

`CCN1CCCC[C@H]1C(=O)N1CCN(C(c2ccccc2)c2ccc(Cl)cc2)CC1` (stereo partly drawn) [Compound 41, {4-[(4-Chlorophenyl)phenylmethyl]-piperazin-1-yl}-((2S)-1-ethylpiperidin-2-yl)-methanone dihydrochloride]: the concentration for a half-maximal effect (EC50) is < 100 nM. Take `CCN1CCCC[C@H]1C(=O)N1CCN(C(c2ccccc2)c2nc(OC)cc(OC)n2)CC1` (some centres unmarked) [Compound 43]: the EC50 was 100 to 500 nM. The result for `CCN1CCCC[C@H]1C(=O)N1CCC(C(c2ccccc2)c2ccccc2)CC1` [Compound 44, (4-Benzhydrylpiperidin-1-yl)-((2S)-1-ethylpiperidin-2-yl)-methanone hydrochloride] reads < 100 nM; that for `CCN1CCCC[C@H]1C(=O)N1CCC(C(=O)c2ccc(F)cc2)CC1` [Compound 45, ((2S)-1-Ethylpiperidin-2-yl)-[4-(4-fluorobenzoyl)-piperidin-1-yl]-methanone], 100 to 500 nM. Regarding `CCN1CCCC[C@H]1C(=O)N1CCC(C(O)c2ccc(F)cc2)CC1` (stereo partly drawn) [Compound 46, ((2S)-1-Ethylpiperidin-2-yl)-{4-[(4-fluorophenyl)hydroxymethyl]-piperidin-1-yl}-methanone], the EC50 is > 500 nM. With `CCN1CCCC[C@H]1C(=O)N1CCC(Cc2ccc(F)cc2)CC1` [Compound 47, ((2S)-1-Ethylpiperidin-2-yl)-[4-(4-fluorobenzyl)-piperidin-1-yl]-methanone hydrochloride] the figure was < 100 nM; with `O=C([C@@H]1CCCN1Cc1ccccc1)N1CCC(Oc2ccc(F)cc2)CC1` [Compound 48, ((2S)-1-Benzylpyrrolidin-2-yl)-[4-(4-fluorophenoxy)-piperidin-1-yl] -methanone hydrochloride], < 100 nM. The result for `O=C([C@@H]1CCCN1Cc1ccccc1)N1CCC(Cc2ccc(F)cc2)CC1` [Compound 49, ((2S)-1-Benzylpyrrolidin-2-yl)-[4-(4-fluorobenzyl)-piperidin-1-yl]-methanone hydrochloride] reads < 100 nM; that for `CCN1CCC[C@H]1C(=O)N1CCN(C(c2ccc(F)cc2)c2ccc(F)cc2)CC1` [Compound 50, 4-[Bis-(4-fluorophenyl)methyl]piperazin-1-yl}-((2S)-1-ethylpyrrolidin-2-yl)-methanone dihydrochloride], 100 to 500 nM. With `O=C([C@@H]1CCCN1Cc1ccccc1)N1CCC(Cc2ccccc2)CC1` [Compound 52, (4-Benzylpiperidin-1-yl)-((2S)-1-benzylpyrrolidin-2-yl)-methanone hydrochloride] the figure was < 100 nM; with `CCN1CCC[C@H]1C(=O)N1CCC(Cc2ccccc2)CC1` [Compound 53, (4-Benzylpiperidin-1-yl)-((2S)-1-ethylpyrrolidin-2-yl)-methanone hydrochloride], 100 to 500 nM; with `O=C([C@H]1CCCN1Cc1ccccc1)N1CCC(Cc2ccccc2)CC1` [Compound 55, (4-Benzylpiperidin-1-yl)-((2R)-1-benzylpyrrolidin-2-yl)methanone hydrochloride], 100 to 500 nM. In the case of `O=C([C@@H]1CCCN1CCc1ccccc1)N1CCC(Cc2ccccc2)CC1` [Compound 57, (4-Benzylpiperidin-1-yl)-((2S)-1-phenethylpyrrolidin-2-yl)-methanone], the EC50 is 100 to 500 nM. With `O=C([C@@H]1CCCN1Cc1ccc(F)cc1)N1CCC(Cc2ccccc2)CC1` [Compound 58, (4-Benzylpiperidin-1-yl)-[(2S)-1-(4-fluorobenzyl)-Pyrrolidin-2-yl]-methanone hydrochloride], the EC50 was < 100 nM. The result for `O=C([C@@H]1CCCN1CCCc1ccccc1)N1CCC(Cc2ccccc2)CC1` [Compound 59, (4-Benzylpiperidin-1-yl)-[(2S)-1-(3-phenylpropyl) - pyrrolidin-2-yl]-methanone hydrochloride] reads 100 to 500 nM; that for `COc1ccc(CN2CCCC[C@H]2C(=O)N2CCN(C(c3ccccc3)c3ccccc3)CC2)cc1` [Compound 60, (4-Benzhydrylpiperazin-1-yl)-[(2S)-1-(4-methoxybenzyl)-piperidin-2-yl]-methanone dihydrochloride], < 100 nM. With `O=C([C@@H]1CCCCN1Cc1ccccc1)N1CCN(C(c2ccc(F)cc2)c2ccc(F)cc2)CC1` [Compound 61, ((2S)-1-Benzylpiperidin-2-yl)-{4-[bis-(4-fluorophenyl)methyl]-piperazin-1-yl}-methanone] the figure was 100 to 500 nM. The result for `O=C([C@@H]1CCCCN1Cc1ccc(F)cc1)N1CCN(C(c2ccc(F)cc2)c2ccc(F)cc2)CC1` [Compound 62, {4-[Bis-(4-fluorophenyl)methyl]-pipezazin-1-yl}-[(2S)-1-(4-fluorobenzyl)-piperidin-2-yl]-methanone] reads 100 to 500 nM; that for `O=C([C@@H]1CCCCN1CC1CC1)N1CCN(C(c2ccc(F)cc2)c2ccc(F)cc2)CC1` [Compound 63, {4-[Bis-(4-fluorophenyl)methyl]-piperazin-1-yl}-((2S)-1-cyclopropylmethyl-piperidin-2-yl)-methanone], > 500 nM; that for `CC(C)=CCN1CCCC[C@H]1C(=O)N1CCN(C(c2ccc(F)cc2)c2ccc(F)cc2)CC1` [Compound 65, {4-[Bis-(4-fluorophenyl)methyl]-piperazin-1-yl}-[(2S)-1-(3-methyl-but-2-enyl)-piperidin-2-yl]-methanone], < 100 nM.

`CC(C)CN1CCCC[C@H]1C(=O)N1CCN(C(c2ccc(F)cc2)c2ccc(F)cc2)CC1` [Compound 66, [4-[Bis-(4-fluorophenyl)methyl]-piperazin-1-yl]-((2S)-1-(2-methylpropyl)-piperidin-2-yl)-methanone]: the EC50 is > 500 nM.
